Experimental data: patent US7125990B2, “Imidazolyl derivatives as corticotropin releasing factor inhibitors” (Bristol-Myers Squibb COmpany, priority 2001, dated 2006)

Target: T1, CRF1 receptors (Homo sapiens, UniProt P34998)
T1 construct: endogenous in cells; host or cells: IMR-32 cells, transformed with 2.5 µM 5'-bromo-2'-deoxyuridine for 10 days; membrane preparation
T1 sequence (P34998 24-415): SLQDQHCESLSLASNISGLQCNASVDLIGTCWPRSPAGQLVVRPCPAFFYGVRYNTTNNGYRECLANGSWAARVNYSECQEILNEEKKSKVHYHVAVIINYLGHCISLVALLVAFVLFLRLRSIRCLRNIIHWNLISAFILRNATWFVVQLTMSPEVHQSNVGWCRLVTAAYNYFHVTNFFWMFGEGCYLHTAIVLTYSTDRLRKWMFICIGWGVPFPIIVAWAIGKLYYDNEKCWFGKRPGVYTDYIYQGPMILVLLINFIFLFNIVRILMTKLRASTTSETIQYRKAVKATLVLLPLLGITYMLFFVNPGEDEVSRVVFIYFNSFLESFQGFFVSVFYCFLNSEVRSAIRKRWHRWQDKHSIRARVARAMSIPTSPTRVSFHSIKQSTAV
Assay: CRF1 receptor radioligand binding assay ([125I]-oCRF competition, IMR-32 cell membranes)
Details: IMR-32 cell membranes, [125I]-oCRF 100 pM; read-out: Ki (CRF-1R)
Summary of the method: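 Buffer: Tris pH 7.2 with MgCl2, BSA, Triton X-100, aprotinin, leupeptin; reaction stopped with ice-cold wash and filtered. Nonspecific binding set with 10 μM oCRF.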

Ki [µM] | SMILES
< 0.1 | CCc1nc2n(-c3c(C)cc(C)cc3C)c(Cl)cn2c1C(=O)N1CC(C)CC(C)C1 (stereo not drawn) [Example 300]
< 1 | CCCN(CC1CC1)C(=O)c1c(C)nc2n1CC(=O)N2c1c(C)cc(C)cc1C [Example 301, 2-Methyl-6-oxo-7-(2,4,6-trimethyl-phenyl)-6,7-dihydro-5H-imidazo[1,2-a]imidazole-3-carboxylic acid cyclopropylmethyl-propyl-amide]
< 0.1 | CCCN(CC1CC1)C(=O)c1c(C(F)(F)F)nc2n(-c3c(C)cc(C)cc3C)c(Cl)cn12 [Example 302, 6-Chloro-2-trifluoromethyl-7-(2,4,6-trimethyl-phenyl)-7H-imidazo[1,2-a]imidazole-3-carboxylic acid cyclopropylmethyl-propyl-amide]
< 0.01 | CCCN(Cc1c(C(F)(F)F)nc2n(-c3c(C)cc(C)cc3C)c(Cl)cn12)CC1CC1 [Example 303, [6-Chloro-2-trifluoromethyl-7-(2,4,6-trimethyl-phenyl)-7H-imidazo[1,2-a]imidazol-3-ylmethyl]-cyclopropylmethyl-propyl-amine]
< 0.01 | Cc1cc(C)c(-n2c(Cl)cn3c(CN(CC4CC4)CC(F)(F)F)c(C(F)(F)F)nc23)c(C)c1 [Example 304, [6-Chloro-2-trifluoromethyl-7-(2,4,6-trimethyl-phenyl)-7H-imidazo[1,2-a]imidazol-3-ylmethyl]-cyclopropylmethyl-(2,2,2-trifluoro-ethyl)-amine]
< 1 | Cc1cc(C)c(-n2c(Cl)cn3c(CN4CC=CCC4)c(C(F)(F)F)nc23)c(C)c1 [Example 305, 2-Chloro-5-(3,6-dihydro-2H-pyridin-1-ylmethyl)-6-trifluoromethyl-1-(2,4,6-trimethyl-phenyl)-1H-imidazo[1,2-a]imidazole]
< 1 | Cc1cc(C)c(-n2c(Cl)cn3c(CN4CCSCC4)c(C(F)(F)F)nc23)c(C)c1 [Example 306, 2-Chloro-5-thiomorpholin-4-ylmethyl-6-trifluoromethyl-1-(2,4,6-trimethyl-phenyl)-1H-imidazo[1,2-a]imidazole]
< 1 | Cc1cc(C)c(-n2c(Cl)cn3c(CN(C)Cc4ccccc4)c(C(F)(F)F)nc23)c(C)c1 [Example 307, Benzyl-[6-chloro-2-trifluoromethyl-7-(2,4,6-trimethyl-phenyl)-7H-imidazo[1,2-a]imidazol-3-ylmethyl]-methyl-amine]
< 1 | Cc1cc(C)c(-n2c(Cl)cn3c(CN(C)CCc4ccccc4)c(C(F)(F)F)nc23)c(C)c1 [Example 308, [6-Chloro-2-trifluoromethyl-7-(2,4,6-trimethyl-phenyl)-7H-imidazo[1,2-a]imidazol-3-ylmethyl]-methyl-phenethyl-amine]
< 1 | CCN(Cc1ccccc1)Cc1c(C(F)(F)F)nc2n(-c3c(C)cc(C)cc3C)c(Cl)cn12 [Example 309, Benzyl-[6-chloro-2-trifluoromethyl-7-(2,4,6-trimethyl-phenyl)-7H-imidazo[1,2-a]imidazol-3-ylmethyl]-ethyl-amine]
< 1 | CCCCN(C)Cc1c(C(F)(F)F)nc2n(-c3c(C)cc(C)cc3C)c(Cl)cn12 [Example 310, Butyl-[6-chloro-2-trifluoromethyl-7-(2,4,6-trimethyl-phenyl)-7H-imidazo[1,2-a]imidazol-3-ylmethyl]-methyl-amine]
< 1 | CCCCN(Cc1ccccc1)Cc1c(C(F)(F)F)nc2n(-c3c(C)cc(C)cc3C)c(Cl)cn12 [Example 311, Benzyl-butyl-[6-chloro-2-trifluoromethyl-7-(2,4,6-trimethyl-phenyl)-7H-imidazo[1,2-a]imidazol-3-ylmethyl]-amine]
< 0.1 | C=C(C)CN(CC)Cc1c(C(F)(F)F)nc2n(-c3c(C)cc(C)cc3C)c(Cl)cn12 [Example 312, [6-Chloro-2-trifluoromethyl-7-(2,4,6-trimethyl-phenyl)-7H-imidazo[1,2-a]imidazol-3-ylmethyl]-ethyl-(2-methyl-allyl)-amine]
< 1 | CCCN(Cc1ccc([N+](=O)[O-])cc1)Cc1c(C(F)(F)F)nc2n(-c3c(C)cc(C)cc3C)c(Cl)cn12 [Example 313, [6-Chloro-2-trifluoromethyl-7-(2,4,6-trimethyl-phenyl)-7H-imidazo[1,2-a]imidazol-3-ylmethyl]-(4-nitro-benzyl)-propyl-amine]
< 1 | Cc1cc(C)c(-n2c(Cl)cn3c(CN(C)Cc4ccco4)c(C(F)(F)F)nc23)c(C)c1 [Example 314, [6-Chloro-2-trifluoromethyl-7-(2,4,6-trimethyl-phenyl)-7H-imidazo[1,2-a]imidazol-3-ylmethyl]-furan-2-ylmethyl-methyl-amine]
< 1 | CCN(Cc1ccc(Cl)c(Cl)c1)Cc1c(C(F)(F)F)nc2n(-c3c(C)cc(C)cc3C)c(Cl)cn12 [Example 315, [6-Chloro-2-trifluoromethyl-7-(2,4,6-trimethyl-phenyl)-7H-imidazo[1,2-a]imidazol-3-ylmethyl]-(3,4-dichloro-benzyl)-ethyl-amine]
< 1 | Cc1cc(C)c(-n2c(Cl)cn3c(CN4CCCC4Cc4ccccc4)c(C(F)(F)F)nc23)c(C)c1 (stereo not drawn) [Example 316, 5-(2-Benzyl-pyrrolidin-1-ylmethyl)-2-chloro-6-trifluoromethyl-1-(2,4,6-trimethyl-phenyl)-1H-imidazo[1,2-a]imidazole]
< 1 | Cc1cc(C)c(-n2c(Cl)cn3c(CN4CCC(c5ccccc5)C4)c(C(F)(F)F)nc23)c(C)c1 (stereo not drawn) [Example 317, 2-Chloro-5-(3-phenyl-pyrrolidin-1-ylmethyl)-6-trifluoromethyl-1-(2,4,6-trimethyl-phenyl)-1H-imidazo[1,2-a]imidazole]
< 0.01 | Cc1cc(C)c(-n2c(Cl)cn3c(CN(CC4CC4)CC(F)(F)C(F)(F)F)c(C(F)(F)F)nc23)c(C)c1 [Example 318]
< 0.01 | CCN(Cc1c(C(F)(F)F)nc2n(-c3c(C)cc(C)cc3C)c(Cl)cn12)CC1CC1 [Example 319, [6-Chloro-2-trifluoromethyl-7-(2,4,6-trimethyl-phenyl)-7H-imidazo[1,2-a]imidazol-3-ylmethyl]-cyclopropylmethyl-ethyl-amine]
< 0.01 | Cc1cc(C)c(-n2c(Cl)cn3c(CN(CC4CCC4)CC(F)(F)F)c(C(F)(F)F)nc23)c(C)c1 [Example 320, [6-Chloro-2-trifluoromethyl-7-(2,4,6-trimethyl-phenyl)-7H-imidazo[1,2-a]imidazol-3-ylmethyl]-cyclobutylmethyl-(2,2,2-trifluoro-ethyl)-amine]
< 0.01 | CCCN(CCC(F)(F)F)Cc1c(C(F)(F)F)nc2n(-c3c(C)cc(C)cc3C)c(Cl)cn12 [Example 321, [6-Chloro-2-trifluoromethyl-7-(2,4,6-trimethyl-phenyl)-7H-imidazo[1,2-a]imidazol-3-ylmethyl]-propyl-(3,3,3-trifluoro-propyl)-amine]
< 0.01 | CCCN(Cc1c(C(F)(F)F)nc2n(-c3c(C)cc(C)cc3C)c(Cl)cn12)CC(F)(F)F [Example 322, [6-Chloro-2-trifluoromethyl-7-(2,4,6-trimethyl-phenyl)-7H-imidazo[1,2-a]imidazol-3-ylmethyl]-propyl-(2,2,2-trifluoro-ethyl)-amine]
< 1 | CCCN(Cc1c(C(F)(F)F)nc2n(-c3c(C)cc(C)cc3C)c(Cl)cn12)CC(F)(F)C(F)(F)F [Example 323, [6-Chloro-2-trifluoromethyl-7-(2,4,6-trimethyl-phenyl)-7H-imidazo[1,2-a]imidazol-3-ylmethyl]-(2,2,3,3,3-pentafluoro-propyl)-propyl-amine]
< 1 | Cc1cc(C)c(-n2c(Cl)cn3c(CN(CCc4ccccc4)CC(F)(F)F)c(C(F)(F)F)nc23)c(C)c1 [Example 324, [6-Chloro-2-trifluoromethyl-7-(2,4,6-trimethyl-phenyl)-7H-imidazo[1,2-a]imidazol-3-ylmethyl]-phenethyl-(2,2,2-trifluoro-ethyl)-amine]
< 0.1 | Cc1cc(C)c(-n2c(Cl)cn3c(CN(CCC(F)(F)F)Cc4ccccc4)c(C(F)(F)F)nc23)c(C)c1 [Example 327, Benzyl-[6-chloro-2-trifluoromethyl-7-(2,4,6-trimethyl-phenyl)-7H-imidazo[1,2-a]imidazol-3-ylmethyl]-(3,3,3-trifluoro-propyl)-amine]
< 0.01 | Cc1cc(C)c(-n2c(Cl)cn3c(CN(CCC4CC4)CCC(F)(F)F)c(C(F)(F)F)nc23)c(C)c1 [Example 330, [6-Chloro-2-trifluoromethyl-7-(2,4,6-trimethyl-phenyl)-7H-imidazo[1,2-a]imidazol-3-ylmethyl]-(2-cyclopropyl-ethyl)-(3,3,3-trifluoro-propyl)-amine]
< 0.01 | Cc1cc(C)c(-n2c(Cl)cn3c(CN(CCC4CC4)CC(F)(F)F)c(C(F)(F)F)nc23)c(C)c1 [Example 331, [6-Chloro-2-trifluoromethyl-7-(2,4,6-trimethyl-phenyl)-7H-imidazo[1,2-a]imidazol-3-ylmethyl]-(2-cyclopropyl-ethyl)-(2,2,2-trifluoro-ethyl)-amine]
< 1 | Cc1cc(C)c(-n2c(Cl)cn3c(CN(Cc4ccc(F)cc4)CC(F)(F)F)c(C(F)(F)F)nc23)c(C)c1 [Example 332]
< 0.1 | Cc1cc(C)c(-n2c(Cl)cn3c(CN(CCC(F)(F)F)Cc4ccc(F)cc4)c(C(F)(F)F)nc23)c(C)c1 [Example 333]
